In patent US20250320209A1, “Salts and Solid Forms of Sonrotoclax Intermediate” (BeOne Medicines I GmbH, priority 2022, published 2025):

Key:
[1] = Salt formation of Compound 2 with seven acids in seven organic solvents: physical form obtained; format: physicochemical; conditions: for physical form of the obtained salt: in certain organic solvents (summary of Table 1); for physical form of Compound 2 salt: 10 mL, acid 1.73 mmol
Method: In one example, Compound 2 (1.0 g, 1.73 mmol) in MTBE (10 mL) solution and oxalic acid (0.16 g, 1.73 mmol) was added dropwise. The reaction mixture was stirred for about 6 hours and filtered to obtain a wet cake of methyl 4-(2-{(2S)-2-[2-(propan-2-yl)phenyl]pyrrolidin-1-yl}-7-azaspiro[3.5]nonan-7-yl)-2-[(1H-pyrrolo[2,3-b]pyridin-5-yl)oxy]benzoate oxalate salt (Compound 3).
The other acids were used as the following amounts, D-(−)-tartaric (0.26 g, 1.73 mmol), p-toluenesulfonic acid (0.3 g, 1.73 mmol), D-DTTA (0.67 g, 1.73 mmol), Citric acid (0.33 g, 1.73 mmol), Malic acid (0.23 g, 1.73 mmol), Maleic acid (0.20 g, 1.73 mmol); and the other organic solvents were used with 10 mL volume.

[2] = Properties of the solid oxalate salt of Compound 2 as stated in text

Compound | physical form of the obtained salt [1] | physical form of Compound 2 salt ([1]; solvent 2-MeTHF) | physical form of Compound 2 salt ([1]; solvent Acetone) | physical form of Compound 2 salt ([1]; solvent DCM) | physical form of Compound 2 salt ([1]; solvent EA) | physical form of Compound 2 salt ([1]; solvent IPAc) | physical form of Compound 2 salt ([1]; solvent MTBE) | physical form of Compound 2 salt ([1]; solvent MeOH) | hydroscopic property ([2]; solid (wet cake) obtained from MTBE) | stability ([2]; solid salt, no test described)
COC(=O)c1ccc(N2CCC3(CC2)CC(N2CCC[C@H]2c2ccccc2C(C)C)C3)cc1Oc1cnc2[nH]ccc2c1.O=C(O)C(=O)O [Compound 3, methyl 4-(2-{(2S)-2-[2-(propan-2-yl)phenyl]pyrrolidin-1-yl}-7-azaspiro[3.5]nonan-7-yl)-2-[(1H-pyrrolo[2,3-b]pyridin-5-yl)oxy]benzoate oxalate salt] | solid form | oil | Clean solution | Clean solution | oil | moisture | Fine solid | Clean solution | low | very good
Cc1ccc(C(=O)O[C@H](C(=O)O)[C@H](OC(=O)c2ccc(C)cc2)C(=O)O)cc1 [D-DTTA] | solid form | Clean solution | Clean solution | Clean solution | Clean solution | oil | Fine solid | Clean solution |  | 
Cc1ccc(S(=O)(=O)O)cc1 [p-toluenesulfonic acid] |  | Clean solution | Clean solution | Clean solution | Clean solution | Clean solution | moisture absorption | Clean solution |  | 
Citric acid |  | oil | Clean | Clean | oil | moisture | moisture | Clean |  | 
Maleic acid |  | Clean solution | Clean solution | Clean solution | Clean solution | oil | moisture | Clean solution |  | 
Malic acid |  | Clean solution | Clean solution | Clean solution | oil | oil | moisture | Clean solution |  | 
